Assay results published in patent US8563559B2 (Rigel Pharmaceuticals, Inc., priority 2006, dated 2013).

Each compound was assayed against T1, Axl (Homo sapiens, UniProt P30530) (assay: Phospho-AKT in-cell Western assay (inhibition of Axl activity)). Conditions: Table 1, formula (Ia); Hela cells, Axl antibody cross-linking stimulation, phospho-Akt chemiluminescence normalized to relative cell number.
T1 construct: endogenous in cells; host or cells: HeLa
T1 sequence (P30530 26-894): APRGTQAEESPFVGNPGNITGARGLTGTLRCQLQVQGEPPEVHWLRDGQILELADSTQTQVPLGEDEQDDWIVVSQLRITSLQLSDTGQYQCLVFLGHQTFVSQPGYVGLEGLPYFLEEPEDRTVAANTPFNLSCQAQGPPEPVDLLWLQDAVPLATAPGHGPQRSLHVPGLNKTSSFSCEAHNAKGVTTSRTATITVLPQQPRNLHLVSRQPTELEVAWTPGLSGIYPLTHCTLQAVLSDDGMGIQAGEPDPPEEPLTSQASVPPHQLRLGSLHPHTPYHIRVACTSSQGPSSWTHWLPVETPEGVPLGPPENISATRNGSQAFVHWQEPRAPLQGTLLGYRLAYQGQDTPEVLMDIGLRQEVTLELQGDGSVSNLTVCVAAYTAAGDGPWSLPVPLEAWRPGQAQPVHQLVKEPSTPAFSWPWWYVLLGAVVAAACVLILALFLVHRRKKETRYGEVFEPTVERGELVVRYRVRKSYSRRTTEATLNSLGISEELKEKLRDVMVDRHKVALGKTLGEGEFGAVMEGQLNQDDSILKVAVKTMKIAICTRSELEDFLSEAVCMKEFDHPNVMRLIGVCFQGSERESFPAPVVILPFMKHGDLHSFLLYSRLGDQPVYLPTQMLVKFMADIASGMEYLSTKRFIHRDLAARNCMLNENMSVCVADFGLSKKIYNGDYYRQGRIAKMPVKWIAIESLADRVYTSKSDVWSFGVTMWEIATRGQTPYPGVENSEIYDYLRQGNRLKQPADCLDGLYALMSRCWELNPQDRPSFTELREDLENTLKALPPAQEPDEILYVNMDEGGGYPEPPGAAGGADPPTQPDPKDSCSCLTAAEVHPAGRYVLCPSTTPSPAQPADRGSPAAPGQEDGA
Format: cell-based
Protocol: The compounds of the invention were tested in the following assay for their ability to inhibit Axl activity.
Phospho-AKT in-Cell Western Assay
• Cell culture plate: 96 well assay plate (Corning 3610), white, clear bottom, tissue-culture treated. • Cells: Hela cells. • Starvation medium: For Axl stimulation: 0.5% FCS (fetal calf serum) in DMEM, plus Axl/Fc (extracellular domain of AXL fused to immunoglobulin Fc region) (R&D, 154-AL) 500 ng/mL. • For EGF (epidermal growth factor) stimulation: 0.5% FCS in DMEM (Dulbecco's modified Eagles medium). • Poly-L-Lysine 0.01% solution (the working solution): 10 μg/ml, dilute In PBS (phosphate buffered saline). • Axl antibody cross-linking: • 1st: Mouse anti-Axl (R&D, MAB154). • 2nd: Biotin-SP-conjugated AffiniPure goat anti-mouse IgG (H+L) (Jackson ImmunoResearch #115-065-003). • Fixing buffer: 4% formaldehyde in PBS. • Wash buffer: 0.1% TritonX-100 in PBS. • Quenching buffer: 3% H2O2, 0.1% Azide in wash buffer, Azide and hydrogen peroxide 1(H2O2) are added fresh. • Blocking buffer: 5% BSA in TBST (tris buffered saline plus 0.1% Tween 20). • Primary antibody: Rabbit anti-human Phospho-Akt antibody (Cell Signaling 9271): 1×250 diluted in blocking buffer. • Secondary antibody: HRP (horse radish peroxidase)-conjugated Goat anti-Rabbit secondary, stock solution: Jackson ImmunoResearch (Goat anti-Rabbit HRP, #111-035-144) 1:1 diluted in glycerol, store at −20° C. The working solution: 1×2000 dilution of stock in blocking buffer. • Chemiluminescent working solution (Pierce, 37030): SuperSignal ELISA (enzyme linked immunosorbant assay) Pico Chemiluminescent substrate. • Crystal Violet solution: Stock: 2.5% Crystal violet in methanol, filtered and kept at ambient temperature. The working solution: dilute the stock 1:20 with PBS immediately before use. • 10% SDS: working solution: 5% SDS (sodium dodecylsulfate), diluted in PBS Methods: Day 1:
A 96 well TC (tissue culture treated) plate was coated with 10 μg/mL poly-L-Lysine at 37° C. for 30 min, washed twice with PBS, and air-dried for 5 minutes before cells were added. Hela cells were seeded at 10,000 cells/well and the cells were starved in 100 μL starvation medium containing Axl/Fc for 24 hrs.
The cells were pre-treated with test compounds by adding 100 μL of 2× test compound to the starvation medium on the cells. The cells were incubated at 37° C. for 1 hr before stimulation.
The cells were stimulated by Axl-antibody cross-linking as follows: A 5×1st/2nd Axl antibody mixture was made (37.5 μg/mL 1st/100 μg/mL 2nd) in starvation medium and nutated at 4° C. with thorough mixing for 1-2 hours for clustering. The resulting mix was warmed to 37° C. 50 μL of 5×Axl 1st/2nd of antibody cluster was added to the cells and the cells were incubated at 37° C. for 5 min.
After 5 minutes stimulation, the plate was flicked to remove medium and the plate was tapped onto paper towels. Formaldehyde (4.0% in PBS, 100 μL) was added to fix the cells and the cells were incubated at ambient temperature for 20 min without shaking.
The cells were washed with a plate washer buffer to remove the formaldehyde solution. The plate was flicked to removed excess wash buffer and tapped onto paper towels. Quenching buffer (100 μL) was added to each well and the cells were incubated at ambient temperature for 20 minutes without shaking.
The cells were washed with a plate washer buffer to remove the quenching buffer. Blocking buffer (100 μL) was added and the cells were incubated at ambient temperature for at least an hour with gentle shaking.
The cells were washed with a plate washer buffer and diluted primary antibody (50 μL) was added to each well (blocking buffer was added to the negative control wells instead). The plates were incubated overnight at 4° C. with gentle shaking.
The wash buffer was removed, diluted secondary antibody (100 μL) was added, and the cells were incubated at ambient temperature for 1 hour with gentle shaking. […]

First: CNC(=O)[C@H]1C[C@H]2C[C@H](C2(C)C)[C@@]1(C)Nc1nc(Nc2ccc(N3CCN(C)CC3)c(Cl)c2)ncc1Cl [Compound 5, (1R,2R,3S,5R)-2-(5-chloro-2-(3-chloro-4-(4-methylpiperazin-1-yl)phenylamino)pyrimidin-4-ylamino)-N,2,6,6-tetramethylbicyclo[3.1.1]heptane-3-carboxamide]
Second: CNC(=O)[C@H]1C[C@H]2C[C@H](C2(C)C)[C@@]1(C)Nc1nc(Nc2ccc(Cl)c(N3CCN(C(C)=O)CC3)c2)ncc1Cl [Compound 16, (1R,2R,3S,5R)-2-(2-(3-(4-acetylpiperazin-1-yl)-4-chlorophenylamino)-5-chloropyrimidin-4-ylamino)-N,2,6,6-tetramethylbicyclo[3.1.1]heptane-3-carboxamide]
The IC50 of the first is lower: < 1000 nM for the first, 1000 to 10000 nM for the second. The first is the more potent here.

Going from `CCN(CC)C1CCN(c2ccc(Nc3ncc(C(F)(F)F)c(N[C@@]4(C)[C@@H](C(=O)NC)C[C@H]5C[C@@H]4C5(C)C)n3)cc2F)CC1` [Compound 52, (1R,2R,3S,5R)-2-(5-trifluoromethyl-2-(3-fluoro-4-(4-(diethylamino)piperidin-1-yl)phenylamino)pyrimidin-4-ylamino)-N,2,6,6-tetramethylbicyclo[3.1.1]heptane-3-carboxamide] to `CNC(=O)[C@H]1C[C@H]2C[C@H](C2(C)C)[C@@]1(C)Nc1nc(Nc2ccc(N3CCN(S(C)(=O)=O)CC3)c(C(F)(F)F)c2)ncc1F` [Compound 37, (1R,2R,3S,5R)-2-(5-fluoro-2-(3-trifluoromethyl-4-(4-methylsulfonylpiperazin-1-yl)phenylamino)pyrimidin-4-ylamino)-N,2,6,6-tetramethylbicyclo[3.1.1]heptane-3-carboxamide], the IC50 rises from < 1000 nM to > 20000 nM. The first is the more potent here.

`CNC(=O)[C@H]1C[C@H]2C[C@H](C2(C)C)[C@@]1(C)Nc1nc(Nc2ccc(OCCNC3CCCC3)cc2)ncc1Cl` [Compound 9, (1R,2R,3S,5R)-2-(5-chloro-2-(4-(2-(cyclopentylamino)ethoxy)phenylamino)pyrimidin-4-ylamino)-N,2,6,6-tetramethylbicyclo[3.1.1]heptane-3-carboxamide] and `CNC(=O)[C@H]1C[C@H]2C[C@H](C2(C)C)[C@@]1(C)Nc1nc(Nc2ccc(N3CCN(CCO)CC3)cc2)ncc1Cl` [Compound 41, (1R,2R,3S,5R)-2-(5-chloro-2-(4-(4-(2-hydroxyethyl)piperazin-1-yl)phenylamino)pyrimidin-4-ylamino)-N,2,6,6-tetramethylbicyclo[3.1.1]heptane-3-carboxamide] cannot be ordered by IC50: < 1000 nM for the first, < 1000 nM for the second.

First: CN1CCN(c2ccc(Nc3nccc(N[C@@]4(CCO)[C@@H](C(N)=O)C[C@H]5C[C@@H]4C5(C)C)n3)cc2F)CC1 [Compound 19, (1R,2R,3S,5R)-2-(2-(3-fluoro-4-(4-methylpiperazin-1-yl)phenylamino)pyrimidin-4-ylamino)-2-(2-hydroxyethyl)-6,6-dimethylbicyclo[3.1.1]heptane-3-carboxamide]
Second: CNC(=O)[C@H]1C[C@H]2C[C@H](C2(C)C)[C@@]1(C)Nc1nc(Nc2ccc(N3CCC(F)(F)CC3)c(F)c2)ncc1C [Compound 44, (1R,2R,3S,5R)-2-(5-methyl-2-(3-fluoro-4-(4,4-difluoropiperidin-1-yl)phenylamino)pyrimidin-4-ylamino)-N,2,6,6-tetramethylbicyclo[3.1.1]heptane-3-carboxamide]
The IC50 of the first is higher: > 20000 nM for the first, 1000 to 10000 nM for the second.

In the case of `CNC(=O)[C@H]1C[C@H]2C[C@H](C2(C)C)[C@@]1(C)Nc1nc(Nc2ccc(OCCN3CCCC3)c(F)c2)ncc1Cl` [Compound 3, (1R,2R,3S,5R)-2-(5-chloro-2-(3-fluoro-4-(2-(pyrrolidin-1-yl)ethoxy)phenylamino)pyrimidin-4-ylamino)-N,2,6,6-tetramethylbicyclo[3.1.1]heptane-3-carboxamide], the IC50 is reported as < 1000 nM.

Same assay, conditions: Table 3, formula (Ic); Hela cells, Axl antibody cross-linking stimulation, phospho-Akt chemiluminescence normalized to relative cell number

`CNC(=O)[C@H]1C[C@H]2C[C@H](C2(C)C)[C@@]1(C)Nc1nc(Nc2ccc3c(c2)OCCN3CCN2CCCCC2)ncc1Cl` [Compound 56, (1R,2R,3S,5R)-2-(5-chloro-2-((3,4-dihydro-4-(2-(piperidin-1-yl)ethyl)-2H-benzo[b][1,4]oxazin-7-yl)amino)pyrimidin-4-ylamino)-N,2,6,6-tetramethylbicyclo[3.1.1]heptane-3-carboxamide] and `CNC(=O)[C@H]1C[C@H]2C[C@H](C2(C)C)[C@@]1(C)Nc1nc(Nc2ccc3c(c2)OCCN3CCN2CCCCC2)ncc1F` [Compound 57, (1R,2R,3S,5R)-2-(5-fluoro-2-((3,4-dihydro-4-(2-(piperidin-1-yl)ethyl)-2H-benzo[b][1,4]oxazin-7-yl)amino)pyrimidin-4-ylamino)-N,2,6,6-tetramethylbicyclo[3.1.1]heptane-3-carboxamide] cannot be ordered by IC50: < 1000 nM for the first, < 1000 nM for the second.

Compared with `CNC(=O)[C@H]1C[C@H]2C[C@H](C2(C)C)[C@@]1(C)Nc1nc(Nc2ccc3c(c2)OCCN3CCN(C)C)ncc1F` [Compound 48, (1R,2R,3S,5R)-2-(5-fluoro-2-((3,4-dihydro-4-(2-(dimethylamino)ethyl)-2H-benzo[b][1,4]oxazin-7-yl)amino)pyrimidin-4-ylamino)-N,2,6,6-tetramethylbicyclo[3.1.1]heptane-3-carboxamide], `CNC(=O)[C@H]1C[C@H]2C[C@H](C2(C)C)[C@@]1(C)Nc1nc(Nc2ccc3c(c2)OCCN3CCN(C)C)ncc1Cl` [Compound 47, (1R,2R,3S,5R)-2-(5-chloro-2-((3,4-dihydro-4-(2-(dimethylamino)ethyl)-2H-benzo[b][1,4]oxazin-7-yl)amino)pyrimidin-4-ylamino)-N,2,6,6-tetramethylbicyclo[3.1.1]heptane-3-carboxamide] is lower in IC50: 1000 to 10000 nM for the first, < 1000 nM for the second.

`CNC(=O)[C@H]1C[C@H]2C[C@H](C2(C)C)[C@@]1(C)Nc1nc(Nc2ccc3c(c2)OCCN3CCN2CCOCC2)ncc1Cl` [Compound 58, (1R,2R,3S,5R)-2-(5-chloro-2-((3,4-dihydro-4-(2-(morpholin-4-yl)ethyl)-2H-benzo[b][1,4]oxazin-7-yl)amino)pyrimidin-4-ylamino)-N,2,6,6-tetramethylbicyclo[3.1.1]heptane-3-carboxamide] was tested, and the IC50 was < 1000 nM.
